Key:
[1] = system: RAW264.7 cells (murine macrophage); assay: Inhibition of nitric oxide production in vitro (nitrite by Griess reagent in LPS-stimulated macrophage cells); type: cell-based; settings: Mus musculus, LPS 1 μg/mL, 24 hours, test solution 25-200 μM, nitrite by Griess reagent at 550 nm, Mean ± S.E. of 4-6 observations, read-out: IC50 (inhibition of LPS-induced NO production)
Description: • 1. Prepare the cell culture medium DMEM (Dulbecco's modified eagle medium) with 10% fetal calf serum and 10% penicillin-streptomycin. Grow RAW264.7 cells (murine macrophage) in the medium in an incubator at 37° C. under 5% CO2 and saturated water vapor. • 2. Dissolve each test compound in DMSO to make a stock solution. Prepare the test solutions by making suitable dilutions of each stock solution with DMEM. • 3. Add the LPS solution (final concentration=1 μg/mL) and the test solution (final concentration ranging from 25, 50, 100, and up to 200 μM) to individual cell cultures and place in the incubator for 24 hours. • 4. In vitro Nitrite quantification: The production of NO was determined by measuring the accumulated levels of nitrite in culture supernatants with the Griess reagent in LPS-stimulated macrophage cells. • (a) Withdraw 100 μL of the medium from each cell culture and place in a 96-well plate microplate. Add 100 μL of Griess reagent to the medium at room temperature and cover with aluminum foil for 10 minutes. • (b) Measure the absorption by a Dynatech ELISA reader at 550 nm. NaNO2 was used as the standard to calculate the nitrite concentration. • (c) Calculate the % inhibiiton by the following equation: […]
Wherein RM is the reading of medium only, RM+L is the reading of medium with LPS, RM+L+C is the reading of medium with LPS and test compound.

[2] = system: inducible nitric oxide synthase (iNOS) in rat astrocytes; settings: cited from earlier work

melting point [°C] | SMILES | IC50 [1] [µM] | inhibition of activation of iNOS [2]
 | C/C(O)=C(\C#N)C(=O)Nc1ccc(C(F)(F)F)cc1 [Compound A771726, reference compound] | 175 ± 4.7 | 
148 to 150 | Cc1cc(C(=O)Oc2ccc(OC(=O)c3cc(C)on3)cc2)no1 [Compound 15c] | 7.6 ± 0.4 | 
178 to 180 | Cc1cc(C(=O)Nc2ccc(NC(=O)c3cc(C)on3)cc2)no1 [Compound 14c] | 0.6 ± 0.01 | 
 | Cc1oncc1C(=O)Nc1ccc(C(F)(F)F)cc1 [lefunomide, leflunomide] |  | inhibit activation of iNOS in rat astrocytes
